The text below walks through data of the supplement of paper PMC10307832.

Common to all, as to test: relative viability (nuclei count vs DMSO), 5 days (fraction); higher = more cells survive
Compound in assay [1]: C[C@]12O[C@H](C[C@]1(O)CO)n1c3ccccc3c3c4c(c5c6ccccc6n2c5c31)CNC4=O [Lestaurtinib] + CS(=O)(=O)N1CCN(Cc2cc3nc(-c4cccc5[nH]ncc45)nc(N4CCOCC4)c3s2)CC1 [Pictilisib] (partner 1 µM)
The procedure, abridged: (§1)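 One day after seeding in 1536-well plates, lung cancer cell lines were dosed by pin tool. Dosing was either single-drug or a fixed anchor-drug dose plus five library-drug doses (not always all listed) in √10 steps. After 5 days, nuclei were stained in one fix-and-stain step and counted on 4× images, and relative viability is the nuclei count of treated wells over that of vehicle wells, given as the median of duplicate plates.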

Compound in the assay “Lestaurtinib + Foretinib”: C[C@]12O[C@H](C[C@]1(O)CO)n1c3ccccc3c3c4c(c5c6ccccc6n2c5c31)CNC4=O [Lestaurtinib] + COc1cc2c(Oc3ccc(NC(=O)C4(C(=O)Nc5ccc(F)cc5)CC4)cc3F)ccnc2cc1OCCCN1CCOCC1 [Foretinib] (partner 0.25 µM)
A digest of the protocol:
as §1

Compound in assay [2]: C[C@]12O[C@H](C[C@]1(O)CO)n1c3ccccc3c3c4c(c5c6ccccc6n2c5c31)CNC4=O [Lestaurtinib] + CC(=O)c1c(C)c2cnc(Nc3ccc(N4CCNCC4)cn3)nc2n(C2CCCC2)c1=O [Palbociclib] (partner 0.5 µM)
The procedure, abridged:
as §1

Compound in the assay “TPCA-1 + OSI-027”: C1=CC(=CC=C1C2=CC(=C(S2)NC(=O)N)C(=O)N)F [TPCA-1] + COc1cccc2cc(-c3nc([C@H]4CC[C@H](C(=O)O)CC4)n4ncnc(N)c34)[nH]c12 [OSI-027] (partner 0.5 µM)
The procedure, abridged: as §1

As to NCI-H2023, the relative viability came out at 0.255 in assay [1] (first compound 0.005 µM); 0.27 in assay [1] (first compound 0.01581 µM); 0.167 in assay [1] (first compound 0.05 µM); 0.155 in assay [1] (first compound 0.1581 µM); 0.0782 in assay [1] (first compound 0.5 µM); 1.02 with Lestaurtinib + Foretinib (first compound 0.005 µM). Further, the relative viability in the assay with Lestaurtinib + Foretinib (first compound 0.01581 µM) is 0.758; with Lestaurtinib + Foretinib (first compound 0.05 µM), 0.843; in the assay with Lestaurtinib + Foretinib (first compound 0.1581 µM), 1.01; with Lestaurtinib + Foretinib (first compound 0.5 µM), 0.164; in assay [2] (first compound 0.005 µM), 0.402; in assay [2] (first compound 0.01581 µM), 0.316. In addition, the relative viability in assay [2] (first compound 0.05 µM) is 0.384; in assay [2] (first compound 0.1581 µM), 0.261; in assay [2] (first compound 0.5 µM), 0.121; in the assay with TPCA-1 + OSI-027 (first compound 0.04 µM), 0.552; in the assay with TPCA-1 + OSI-027 (first compound 0.1265 µM) it was 0.335; in the assay with TPCA-1 + OSI-027 (first compound 0.4 µM) it was 0.364. Moreover, the relative viability with TPCA-1 + OSI-027 (first compound 1.265 µM) turned out to be 0.32; with TPCA-1 + OSI-027 (first compound 4 µM), 0.187.
NCI-H2085: the relative viability was determined as 0.482 in assay [1] (first compound 0.005 µM); 0.474 in assay [1] (first compound 0.01581 µM); 0.465 in assay [1] (first compound 0.05 µM); 0.476 in assay [1] (first compound 0.1581 µM); 0.49 in assay [1] (first compound 0.5 µM); 1.01 in the assay with Lestaurtinib + Foretinib (first compound 0.005 µM). For the same cell line, the relative viability in the assay with Lestaurtinib + Foretinib (first compound 0.01581 µM) was 0.885; with Lestaurtinib + Foretinib (first compound 0.05 µM), 0.801; with Lestaurtinib + Foretinib (first compound 0.1581 µM), 1.05; with Lestaurtinib + Foretinib (first compound 0.5 µM), 0.826; in assay [2] (first compound 0.005 µM), 0.445; in assay [2] (first compound 0.01581 µM) it was 0.489. The relative viability is 0.471 in assay [2] (first compound 0.05 µM); 0.463 in assay [2] (first compound 0.1581 µM); 0.475 in assay [2] (first compound 0.5 µM); 0.978 in the assay with TPCA-1 + OSI-027 (first compound 0.04 µM); 0.689 with TPCA-1 + OSI-027 (first compound 0.1265 µM); 0.731 in the assay with TPCA-1 + OSI-027 (first compound 0.4 µM). Also, the relative viability in the assay with TPCA-1 + OSI-027 (first compound 1.265 µM) came out at 0.462; in the assay with TPCA-1 + OSI-027 (first compound 4 µM), 0.354.
Take NCI-H2087: the relative viability in assay [1] (first compound 0.005 µM) worked out at 0.872; in assay [1] (first compound 0.01581 µM), 0.745; in assay [1] (first compound 0.05 µM) it was 0.53; in assay [1] (first compound 0.1581 µM), 0.689; in assay [1] (first compound 0.5 µM) it was 0.322; with Lestaurtinib + Foretinib (first compound 0.005 µM) it was 1.13. Further, the relative viability with Lestaurtinib + Foretinib (first compound 0.01581 µM) stood at 1.31; with Lestaurtinib + Foretinib (first compound 0.05 µM), 0.848; in the assay with Lestaurtinib + Foretinib (first compound 0.1581 µM) it was 0.703; in the assay with Lestaurtinib + Foretinib (first compound 0.5 µM), 0.266; in assay [2] (first compound 0.005 µM), 0.167; in assay [2] (first compound 0.01581 µM) it was 0.252. The relative viability in assay [2] (first compound 0.05 µM) came to 0.167; in assay [2] (first compound 0.1581 µM), 0.17; in assay [2] (first compound 0.5 µM) it was 0.207; with TPCA-1 + OSI-027 (first compound 0.04 µM), 0.554; with TPCA-1 + OSI-027 (first compound 0.1265 µM), 0.444; with TPCA-1 + OSI-027 (first compound 0.4 µM), 0.537. Further, the relative viability with TPCA-1 + OSI-027 (first compound 1.265 µM) worked out at 0.414; with TPCA-1 + OSI-027 (first compound 4 µM), 0.207.
In the case of NCI-H2126, the relative viability was 0.493 in assay [1] (first compound 0.005 µM); 0.525 in assay [1] (first compound 0.01581 µM); 0.415 in assay [1] (first compound 0.05 µM); 0.449 in assay [1] (first compound 0.1581 µM); 0.411 in assay [1] (first compound 0.5 µM); 1.19 in the assay with Lestaurtinib + Foretinib (first compound 0.005 µM). In addition, the relative viability with Lestaurtinib + Foretinib (first compound 0.01581 µM) turned out to be 1.31; with Lestaurtinib + Foretinib (first compound 0.05 µM), 1.1; with Lestaurtinib + Foretinib (first compound 0.1581 µM), 1.1; with Lestaurtinib + Foretinib (first compound 0.5 µM), 0.926; in assay [2] (first compound 0.005 µM), 0.339; in assay [2] (first compound 0.01581 µM), 0.372. Moreover, the relative viability in assay [2] (first compound 0.05 µM) was 0.388; in assay [2] (first compound 0.1581 µM), 0.357; in assay [2] (first compound 0.5 µM), 0.339; with TPCA-1 + OSI-027 (first compound 0.04 µM), 0.623; in the assay with TPCA-1 + OSI-027 (first compound 0.1265 µM) it was 0.961; in the assay with TPCA-1 + OSI-027 (first compound 0.4 µM), 0.786. Further, the figures for the relative viability in the assay with TPCA-1 + OSI-027 (first compound 1.265 µM) and in the assay with TPCA-1 + OSI-027 (first compound 4 µM) were 0.685 and 0.616, respectively.
On to NCI-H2170, for which the relative viability was determined as 0.285 in assay [1] (first compound 0.005 µM); 0.257 in assay [1] (first compound 0.01581 µM); 0.304 in assay [1] (first compound 0.05 µM); 0.293 in assay [1] (first compound 0.1581 µM); 0.223 in assay [1] (first compound 0.5 µM); 0.969 with Lestaurtinib + Foretinib (first compound 0.005 µM). The relative viability in the assay with Lestaurtinib + Foretinib (first compound 0.01581 µM) amounted to 1.02; with Lestaurtinib + Foretinib (first compound 0.05 µM), 0.907; with Lestaurtinib + Foretinib (first compound 0.1581 µM), 0.962; with Lestaurtinib + Foretinib (first compound 0.5 µM) it was 0.358; in assay [2] (first compound 0.005 µM), 0.325; in assay [2] (first compound 0.01581 µM), 0.379. Further, the relative viability was 0.275 in assay [2] (first compound 0.05 µM); 0.394 in assay [2] (first compound 0.1581 µM); 0.218 in assay [2] (first compound 0.5 µM); 0.789 with TPCA-1 + OSI-027 (first compound 0.04 µM); 0.641 in the assay with TPCA-1 + OSI-027 (first compound 0.1265 µM); 0.716 with TPCA-1 + OSI-027 (first compound 0.4 µM). The relative viability with TPCA-1 + OSI-027 (first compound 1.265 µM) turned out to be 0.584; with TPCA-1 + OSI-027 (first compound 4 µM), 0.396.
As to NCI-H2228, the relative viability amounted to 0.461 in assay [1] (first compound 0.005 µM); 0.551 in assay [1] (first compound 0.01581 µM); 0.332 in assay [1] (first compound 0.05 µM); 0.325 in assay [1] (first compound 0.1581 µM); 0.198 in assay [1] (first compound 0.5 µM); 0.885 with Lestaurtinib + Foretinib (first compound 0.005 µM). Besides, the relative viability turned out to be 0.896 with Lestaurtinib + Foretinib (first compound 0.01581 µM); 0.523 with Lestaurtinib + Foretinib (first compound 0.05 µM); 0.379 with Lestaurtinib + Foretinib (first compound 0.1581 µM); 0.254 in the assay with Lestaurtinib + Foretinib (first compound 0.5 µM); 1.03 in assay [2] (first compound 0.005 µM); 1.05 in assay [2] (first compound 0.01581 µM). Besides, the relative viability in assay [2] (first compound 0.05 µM) was 0.407; in assay [2] (first compound 0.1581 µM), 0.28; in assay [2] (first compound 0.5 µM) it was 0.275; in the assay with TPCA-1 + OSI-027 (first compound 0.04 µM), 0.774; in the assay with TPCA-1 + OSI-027 (first compound 0.1265 µM), 0.503; with TPCA-1 + OSI-027 (first compound 0.4 µM), 0.519. Further, the relative viability turned out to be 0.633 with TPCA-1 + OSI-027 (first compound 1.265 µM) and 0.283 in the assay with TPCA-1 + OSI-027 (first compound 4 µM).
Consider NCI-H2347, for which the relative viability in assay [1] (first compound 0.005 µM) stood at 0.692; in assay [1] (first compound 0.01581 µM) it was 0.996; in assay [1] (first compound 0.05 µM) it was 0.485; in assay [1] (first compound 0.1581 µM), 0.472; in assay [1] (first compound 0.5 µM), 0.532; with Lestaurtinib + Foretinib (first compound 0.005 µM), 1.18. Also, the relative viability is 1.38 in the assay with Lestaurtinib + Foretinib (first compound 0.01581 µM); 0.865 with Lestaurtinib + Foretinib (first compound 0.05 µM); 0.98 with Lestaurtinib + Foretinib (first compound 0.1581 µM); 0.598 in the assay with Lestaurtinib + Foretinib (first compound 0.5 µM); 0.433 in assay [2] (first compound 0.005 µM); 0.438 in assay [2] (first compound 0.01581 µM). For the same cell line, the relative viability was 0.535 in assay [2] (first compound 0.05 µM); 0.48 in assay [2] (first compound 0.1581 µM); 0.501 in assay [2] (first compound 0.5 µM); 0.442 with TPCA-1 + OSI-027 (first compound 0.04 µM); 0.483 with TPCA-1 + OSI-027 (first compound 0.1265 µM); 0.43 in the assay with TPCA-1 + OSI-027 (first compound 0.4 µM). Moreover, the relative viability with TPCA-1 + OSI-027 (first compound 1.265 µM) came out at 0.346; with TPCA-1 + OSI-027 (first compound 4 µM), 0.518.
